Assay results: ChEMBL document CHEMBL3864193 (Bioorg Med Chem, 2016)

Assays:
cells [1] = conditions: Homo sapiens, MCF7, 72 h
Description: Cytotoxicity against human MCF7 cells after 72 hrs by MTT assay

[2] = Cytotoxicity against human A549 cells after 72 hrs by MTT assay; format: functional, cell-based; conditions: A549, 72 h
cells [3] = conditions: Homo sapiens, PC-3, 72 h
Description: Cytotoxicity against human PC3 cells after 72 hrs by MTT assay

[4] = target: Vascular endothelial growth factor receptor 2 (Homo sapiens, UniProt P35968); assay: Inhibition of VEGFR2 (unknown origin) by mobility shift/LanthaScreen assay
Vascular endothelial growth factor receptor 2, sequence (P35968 whole entry): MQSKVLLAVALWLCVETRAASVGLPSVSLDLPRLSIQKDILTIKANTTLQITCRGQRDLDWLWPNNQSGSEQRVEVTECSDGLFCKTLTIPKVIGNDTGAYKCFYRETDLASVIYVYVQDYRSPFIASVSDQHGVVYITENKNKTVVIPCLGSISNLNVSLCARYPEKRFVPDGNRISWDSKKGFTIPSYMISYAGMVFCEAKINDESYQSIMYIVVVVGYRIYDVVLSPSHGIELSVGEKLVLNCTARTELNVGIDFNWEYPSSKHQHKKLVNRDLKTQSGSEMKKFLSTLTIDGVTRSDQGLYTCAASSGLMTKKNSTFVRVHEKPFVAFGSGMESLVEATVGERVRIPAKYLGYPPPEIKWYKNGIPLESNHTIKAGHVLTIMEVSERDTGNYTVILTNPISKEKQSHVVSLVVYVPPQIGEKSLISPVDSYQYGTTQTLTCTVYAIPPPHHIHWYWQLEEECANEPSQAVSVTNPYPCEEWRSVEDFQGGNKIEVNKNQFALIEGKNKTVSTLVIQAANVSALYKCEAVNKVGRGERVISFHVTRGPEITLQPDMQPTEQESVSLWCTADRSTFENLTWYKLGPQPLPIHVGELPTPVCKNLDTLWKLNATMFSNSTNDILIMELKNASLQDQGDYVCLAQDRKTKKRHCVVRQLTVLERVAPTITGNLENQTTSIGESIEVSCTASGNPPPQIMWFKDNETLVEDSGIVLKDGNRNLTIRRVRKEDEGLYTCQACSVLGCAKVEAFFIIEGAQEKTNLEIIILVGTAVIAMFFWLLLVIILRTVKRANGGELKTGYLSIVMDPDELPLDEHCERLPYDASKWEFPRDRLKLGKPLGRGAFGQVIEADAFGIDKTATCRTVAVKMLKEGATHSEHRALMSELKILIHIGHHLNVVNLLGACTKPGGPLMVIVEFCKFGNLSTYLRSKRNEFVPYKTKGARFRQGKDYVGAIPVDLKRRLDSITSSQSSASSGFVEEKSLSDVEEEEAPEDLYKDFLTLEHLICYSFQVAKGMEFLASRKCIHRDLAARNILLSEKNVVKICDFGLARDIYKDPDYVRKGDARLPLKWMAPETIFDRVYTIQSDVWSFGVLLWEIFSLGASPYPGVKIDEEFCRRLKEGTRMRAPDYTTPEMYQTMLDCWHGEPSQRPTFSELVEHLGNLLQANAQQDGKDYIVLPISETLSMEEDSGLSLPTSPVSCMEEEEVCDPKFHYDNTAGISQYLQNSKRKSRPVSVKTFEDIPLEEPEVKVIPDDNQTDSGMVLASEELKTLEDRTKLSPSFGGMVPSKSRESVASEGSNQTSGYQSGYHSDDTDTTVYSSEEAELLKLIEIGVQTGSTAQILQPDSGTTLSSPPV

What does the source list for `CNC(=O)c1cc(Oc2ccc(NC(=O)c3cc(-c4ccc(C)cc4)ncn3)cc2F)ccn1`?
IC50 (cells [1]): 19.2 µM; IC50 [2]: 13.2 µM; IC50 (cells [3]): 40.2 µM

With `CNC(=O)c1cc(Oc2ccc(NC(=O)c3cc(-c4ccc(Br)cc4)ncn3)cc2)ccn1` as the compound, how does the IC50 (cells [1]) read?
The IC50 was > 100 µM.

What about the IC50 [2] of the same compound?
The IC50 was > 100 µM.

And the IC50 (cells [3])?
Its IC50 is > 100 µM.

With `CNC(=O)c1cc(Oc2ccc(NC(=O)c3nccc(-c4cccc(Cl)c4)n3)cc2)ccn1` as the compound, how does the IC50 (cells [1]) read?
The IC50 was > 100 µM.

And the IC50 [2]?
The IC50 was > 100 µM.

And the IC50 (cells [3])?
Its IC50 is 20.8 µM.

Which IC50 [4] does the source give for `CCc1ccc(-c2cc(C(=O)Nc3ccc(Oc4ccnc(C(=O)NC)c4)cc3)ncn2)cc1` here?
The IC50 was 3.6 µM.

And the IC50 (cells [1])?
The IC50 was 6.35 µM.

What about the IC50 [2] of the same compound?
Its IC50 is 13.3 µM.

What about the IC50 (cells [3]) of the same compound?
The IC50 was 29.3 µM.

Which IC50 (cells [1]) does the source give for `CNC(=O)c1cc(Oc2ccc(NC(=O)c3cc(-c4ccc(OC)cc4)ncn3)cc2)ccn1` here?
The IC50 was 29.2 µM.

What about the IC50 [2] of the same compound?
Its IC50 is 13.5 µM.

And the IC50 (cells [3])?
The IC50 was 38.8 µM.

With `CNC(=O)c1cc(Oc2ccc(NC(=O)c3cc(-c4ccccc4)ncn3)cc2F)ccn1` as the compound, how does the IC50 (cells [1]) read?
Its IC50 is 32.4 µM.

And the IC50 [2]?
The IC50 was 23.2 µM.

And the IC50 (cells [3])?
The IC50 was 44.3 µM.

What does the source list for `CNC(=O)c1cc(Oc2ccc(NC(=O)c3cc(-c4ccc(Cl)cc4)ncn3)cc2F)ccn1`?
IC50 (cells [1]): > 100 µM; IC50 [2]: > 100 µM; IC50 (cells [3]): > 100 µM

What does the source list for `CNC(=O)c1cc(Oc2ccc(NC(=O)c3cc(-c4ccc(F)cc4)ncn3)cc2)ccn1`?
IC50 (cells [1]): > 100 µM; IC50 [2]: > 100 µM; IC50 (cells [3]): > 100 µM

Which results are given for `CNC(=O)c1cc(Oc2ccc(NC(=O)c3cc(-c4ccc(OC)cc4)ncn3)cc2F)ccn1`?
IC50 (cells [1]): 46.2 µM; IC50 [2]: 34.5 µM; IC50 (cells [3]): 56.2 µM

For `CNC(=O)c1cc(Oc2ccc(NC(=O)c3cc(-c4ccccc4)ncn3)cc2)ccn1`, which IC50 (cells [1]) is on record?
The IC50 was 18.2 µM.

What about the IC50 [2] of the same compound?
The IC50 was 27.1 µM.

And the IC50 (cells [3])?
Its IC50 is 44.2 µM.

Which IC50 (cells [1]) does the source give for `CNC(=O)c1cc(Oc2ccc(NC(=O)c3cc(-c4ccc(Cl)cc4)ncn3)cc2)ccn1` here?
The IC50 was > 100 µM.

What about the IC50 [2] of the same compound?
Its IC50 is > 100 µM.

What about the IC50 (cells [3]) of the same compound?
Its IC50 is > 100 µM.

Which results are given for `CNC(=O)c1cc(Oc2ccc(NC(=O)c3cc(-c4ccc(F)cc4)ncn3)cc2F)ccn1`?
IC50 (cells [1]): > 100 µM; IC50 [2]: > 100 µM; IC50 (cells [3]): > 100 µM

For `CNC(=O)c1cc(Oc2ccc(NC(=O)c3nccc(-c4ccc([N+](=O)[O-])cc4)n3)cc2)ccn1`, which IC50 (cells [1]) is on record?
The IC50 was > 100 µM.

And the IC50 [2]?
The IC50 was > 100 µM.

And the IC50 (cells [3])?
Its IC50 is > 100 µM.

Which results are given for `CNC(=O)c1cc(Oc2ccc(NC(=O)c3nccc(-c4ccc(OC)cc4)n3)cc2F)ccn1`?
IC50 (cells [1]): > 100 µM; IC50 [2]: 16.6 µM; IC50 (cells [3]): 24.3 µM

With `CNC(=O)c1cc(Oc2ccc(NC(=O)c3cc(-c4ccc(Br)cc4)ncn3)cc2F)ccn1` as the compound, how does the IC50 (cells [1]) read?
The IC50 was > 100 µM.

And the IC50 [2]?
Its IC50 is > 100 µM.

What about the IC50 (cells [3]) of the same compound?
The IC50 was > 100 µM.

For `CCc1ccc(-c2cc(C(=O)Nc3ccc(Oc4ccnc(C(=O)NC)c4)c(F)c3)ncn2)cc1`, which IC50 [4] is on record?
Its IC50 is 1.2 µM.

And the IC50 (cells [1])?
The IC50 was 7.63 µM.

And the IC50 [2]?
The IC50 was 3.39 µM.

And the IC50 (cells [3])?
The IC50 was 15.6 µM.

With `CNC(=O)c1cc(Oc2ccc(NC(=O)c3cc(-c4ccc(C)cc4)ncn3)cc2)ccn1` as the compound, how does the IC50 (cells [1]) read?
The IC50 was 34.6 µM.

What about the IC50 [2] of the same compound?
The IC50 was > 100 µM.

And the IC50 (cells [3])?
The IC50 was > 100 µM.

For `CNC(=O)c1cc(Oc2ccc(NC(=O)c3nccc(-c4ccc(C)cc4)n3)cc2)ccn1`, which IC50 (cells [1]) is on record?
Its IC50 is 44.2 µM.

What about the IC50 [2] of the same compound?
Its IC50 is 28.4 µM.

What about the IC50 (cells [3]) of the same compound?
Its IC50 is 13.1 µM.

Which IC50 (cells [1]) does the source give for `CNC(=O)c1cc(Oc2ccc(NC(=O)c3cc(-c4ccc(C(F)(F)F)cc4)ncn3)cc2F)ccn1` here?
The IC50 was > 100 µM.

And the IC50 [2]?
Its IC50 is > 100 µM.

And the IC50 (cells [3])?
Its IC50 is > 100 µM.

With `CNC(=O)c1cc(Oc2ccc(NC(=O)c3nccc(-c4ccc(C)cc4)n3)cc2F)ccn1` as the compound, how does the IC50 (cells [1]) read?
The IC50 was 69.2 µM.

And the IC50 [2]?
Its IC50 is 33.2 µM.

And the IC50 (cells [3])?
Its IC50 is 28.4 µM.

Which IC50 (cells [1]) does the source give for `CNC(=O)c1cc(Oc2ccc(NC(=O)c3cc(-c4ccc(C(F)(F)F)cc4)ncn3)cc2)ccn1` here?
The IC50 was > 100 µM.

What about the IC50 [2] of the same compound?
The IC50 was > 100 µM.

And the IC50 (cells [3])?
The IC50 was > 100 µM.

For `CNC(=O)c1cc(Oc2ccc(NC(=O)c3nccc(-c4ccccc4)n3)cc2)ccn1`, which IC50 (cells [1]) is on record?
The IC50 was 39.1 µM.

What about the IC50 [2] of the same compound?
Its IC50 is 26.2 µM.

What about the IC50 (cells [3]) of the same compound?
Its IC50 is 7.31 µM.

Which results are given for `CNC(=O)c1cc(Oc2ccc(NC(=O)c3nccc(-c4ccc(OC)cc4)n3)cc2)ccn1`?
IC50 (cells [1]): 35.2 µM; IC50 [2]: 11.1 µM; IC50 (cells [3]): 14.2 µM
